According to ChEMBL document CHEMBL1156366, “Sequoiatones C-f, constituents of the redwood endophyte Aspergillus parasiticus” (J Nat Prod, 2001):

assay: Toxicity against brine shrimp; type: organism-based; settings: artemia, in vivo; read-out: LD50 (the source's name)

Row | SMILES | LC50 [µM]
1 | CCCCCC[C@H](C)C(=O)/C=C1\C(C(=O)OC)=C2C=C(C)OC=C2[C@]1(C)O [SEQUOIATONE F] | 260
2 | COC(=O)C1=C2C=C(C)OC=C2[C@](C)(O)/C1=C/C(=O)[C@@H](C)CCCCCCO [SEQUOIATONE D] | 1300
3 | COC(=O)C1=C2C=COC(C)=C2[C@](C)(O)/C1=C/C(=O)[C@@H](C)CCCCCCO [SEQUOIATONE E] | 640
4 | CCCCCC[C@H](C)C(=O)/C=C1\C(C(=O)OC)=C2C=COC(C)=C2[C@]1(C)O [SEQUOIATONE C] | 260
